Assay results taken from patent US20230330093A1, “APPLICATION OF NITROGEN-CONTAINING SATURATED HETEROCYCLIC COMPOUND” (SHANGHAI PHARMACEUTICALS HOLDING CO., LTD., priority 2020, published 2023).

Test system: cynomolgus monkeys
Experiment: 4-week safety study: serum biochemistry
Type: in vivo
Procedure: […] (1) Hematological and coagulation index examination were performed using a Bayer ADVIA2120 (Germany) and a Sysmex CA-1500 (Japan). (2) The serum biochemical examination was assessed using a HITACHI 7080 automated analyzer (Japan) and an Easylyte PLUS electrolyte analyzer (MEDICA, America). (3) The 24-h pooled urine of each animal was collected by a tray under each cage. Urinalysis was carried out using Uritest-300 (China). (4) The 24-h pooled faeces of each monkey were collected by a tray under each cage. Fecal occult blood was detected. (5) ACCESS 2 Chemiluminescence immunoassay was used for myocardial troponin (TropI, non-GLP) test.

## COC(=O)NCCCn1nc([C@@H](C)N(C(=O)[C@H]2CNCCO2)C2CC2)c2ccc(C)nc21 [compound of Formula I]
Female, 20 mg/kg, d0
  BUN: 6.1 ± 1.1 mmol/L
  CHOL: 3.0 ± 0.5 mmol/L
  CPK: 158.4 ± 63.5 U · L^−1
  CREA: 59 ± 4 µM
  K: 5.0 ± 0.3 mmol/L
  Na: 149.4 ± 3.5 mmol/L
Female, 20 mg/kg, d14
  BUN: 5.4 ± 0.9 mmol/L
  CHOL: 2.8 ± 0.2 mmol/L
  CPK: 151.6 ± 45.2 U · L^−1
  CREA: 52.4 ± 3.8 µM
  K: 5.2 ± 0.2 mmol/L
  Na: 149.6 ± 1.7 mmol/L
Female, 20 mg/kg, d26
  BUN: 6.3 ± 1.1 mmol/L
  CHOL: 2.7 ± 0.3 mmol/L
  CPK: 149.4 ± 58.7 U · L^−1
  CREA: 51.2 ± 3.6 µM
  K: 4.9 ± 0.5 mmol/L
  Na: 149.2 ± 4.3 mmol/L
Female, 20 mg/kg, d 56
  BUN: 6.0 ± 0.6 mmol/L
  CHOL: 3.0 ± 0.1 mmol/L
  CPK: 129.0 ± 5.7 U · L^−1
  CREA: 51.5 ± 4.9 µM
  K: 5.0 ± 0.5 mmol/L
  Na: 147.2 ± 4.2 mmol/L
Female, 100 mg/kg, d0
  BUN: 5.9 ± 1.1 mmol/L
  CHOL: 3.8 ± 1.3 mmol/L
  CPK: 187.6 ± 75.0 U · L^−1
  CREA: 55.2 ± 4.7 µM
  K: 4.5 ± 0.4 mmol/L
  Na: 149.4 ± 1.9 mmol/L
Female, 100 mg/kg, d14
  BUN: 6.4 ± 0.8 mmol/L
  CHOL: 2.9 ± 0.6 mmol/L
  CPK: 247.2 ± 89.5 U · L^−1
  CREA: 55.2 ± 3.8 µM
  K: 4.7 ± 0.5 mmol/L
  Na: 149.8 ± 3.7 mmol/L
Female, 100 mg/kg, d26
  BUN: 6.4 ± 1.6 mmol/L
  CHOL: 3.1 ± 0.5 mmol/L
  CPK: 195.0 ± 96.8 U · L^−1
  CREA: 51.2 ± 3.6 µM
  K: 4.8 ± 0.6 mmol/L
  Na: 149.6 ± 3.8 mmol/L
Female, 100 mg/kg, d 56
  BUN: 5.2 ± 0.2 mmol/L
  CHOL: 3.6 ± 0.2 mmol/L
  CPK: 112.0 ± 12.7 U · L^−1
  CREA: 54.5 ± 4.9 µM
  K: 4.2 ± 0.2 mmol/L
  Na: 147.9 ± 1.3 mmol/L
Female, 450 mg/kg, d0
  BUN: 6.1 ± 0.7 mmol/L
  CHOL: 3.3 ± 0.4 mmol/L
  CPK: 163.2 ± 56.2 U · L^−1
  CREA: 54.4 ± 7.1 µM
  K: 5.1 ± 0.5 mmol/L
  Na: 150.1 ± 2.2 mmol/L
Female, 450 mg/kg, d14
  BUN: 14.3 ± 11.8 mmol/L
  CHOL: 2.4 ± 0.9 mmol/L
  CPK: 815.2 ± 1316.0 U · L^−1
  CREA: 162 ± 204 µM
  K: 5.5 ± 0.2 mmol/L
  Na: 144.6 ± 3.5 mmol/L
Female, 450 mg/kg, d26
  BUN: 9.7 ± 1.0 mmol/L
  CHOL: 2.0 ± 0.7 mmol/L
  CPK: 328.5 ± 259.1 U · L^−1
  CREA: 64.3 ± 7.1 µM
  K: 5.3 ± 0.4 mmol/L
  Na: 145.0 ± 2.6 mmol/L
Female, 450 mg/kg, d 56
  BUN: 5.6 ± 0.6 mmol/L
  CHOL: 3.1 ± 0.3 mmol/L
  CPK: 290.0 ± 176.8 U · L^−1
  CREA: 57 ± 2.8 µM
  K: 4.8 ± 0.2 mmol/L
  Na: 145.7 ± 0.9 mmol/L
Male, 20 mg/kg, d0
  BUN: 5.1 ± 0.9 mmol/L
  CHOL: 2.9 ± 0.5 mmol/L
  CPK: 156.6 ± 76.3 U · L^−1
  CREA: 64.2 ± 7.2 µM
